Data: PubChem BioAssay AID1259407 (Chemical Carcinogenesis Research Information System (CCRIS), 2018)
Active and inactive are the calls of the source. The rule behind the calls is not given here.

Test system: CCRIS mutagenicity, Ames/micronucleus/aberration tests
Assay: CCRIS mutagenicity studies
[1] = Test System: AMES SALMONELLA TYPHIMURIUM, Strain/Indicator: TA97, Metabolic Activation: NONE, Method: PREINCUBATION
[2] = Test System: AMES SALMONELLA TYPHIMURIUM, Strain/Indicator: TA98, Metabolic Activation: NONE, Method: PREINCUBATION
[3] = Test System: AMES SALMONELLA TYPHIMURIUM, Strain/Indicator: TA98, Metabolic Activation: NONE, Method: STANDARD PLATE
[4] = Test System: AMES SALMONELLA TYPHIMURIUM, Strain/Indicator: TA98, Metabolic Activation: RAT, LIVER, S-9, PHENOBARBITAL, Method: PREINCUBATION
[5] = Test System: AMES SALMONELLA TYPHIMURIUM, Strain/Indicator: TA100, Metabolic Activation: NONE, Method: PREINCUBATION
[6] = Test System: AMES SALMONELLA TYPHIMURIUM, Strain/Indicator: TA100, Metabolic Activation: NONE, Method: STANDARD PLATE
[7] = Test System: AMES SALMONELLA TYPHIMURIUM, Strain/Indicator: TA100, Metabolic Activation: RAT, LIVER, S-9, PHENOBARBITAL, Method: PREINCUBATION
[8] = Test System: AMES SALMONELLA TYPHIMURIUM, Strain/Indicator: TA1535, Metabolic Activation: NONE, Method: PREINCUBATION

Oc1cccc(O)c1O
mutagenic call (End Point: IN VITRO CHROMOSOMAL ABERRATIONS, Test System: V79 CELLS, Metabolic Activation: NONE): active; positive; active at higher levels at all ph values
mutagenic call [1]: active; positive
mutagenic call (Test System: AMES SALMONELLA TYPHIMURIUM, Strain/Indicator: TA97, Metabolic Activation: RAT, LIVER, S-9, PHENOBARBITAL, Method: PREINCUBATION): active; positive
mutagenic call (Test System: AMES SALMONELLA TYPHIMURIUM, Strain/Indicator: TA98, Metabolic Activation: NONE): inactive; negative
mutagenic call [2]: inactive; negative
mutagenic call [3]: inactive; negative
mutagenic call (Test System: AMES SALMONELLA TYPHIMURIUM, Strain/Indicator: TA98, Metabolic Activation: RAT, LIVER, S-9, AROCLOR 1254, Method: PREINCUBATION): inactive; negative
mutagenic call [4]: active; positive
mutagenic call (Test System: AMES SALMONELLA TYPHIMURIUM, Strain/Indicator: TA98, Metabolic Activation: S-9): inactive; negative
mutagenic call (Test System: AMES SALMONELLA TYPHIMURIUM, Strain/Indicator: TA98, Metabolic Activation: S-9, Method: STANDARD PLATE): active; positive
mutagenic call [5]: active; positive
mutagenic call [6]: inactive; negative
mutagenic call [7]: active; positive
mutagenic call (Test System: AMES SALMONELLA TYPHIMURIUM, Strain/Indicator: TA100, Metabolic Activation: S-9, Method: STANDARD PLATE): active; positive
mutagenic call (Test System: AMES SALMONELLA TYPHIMURIUM, Strain/Indicator: TA102, Metabolic Activation: NONE, Method: STANDARD PLATE): active; positive
mutagenic call (Test System: AMES SALMONELLA TYPHIMURIUM, Strain/Indicator: TA102, Metabolic Activation: RAT, LIVER, S-9, AROCLOR 1254, Method: PREINCUBATION): inactive; negative
mutagenic call [8]: inactive; negative
mutagenic call (Test System: AMES SALMONELLA TYPHIMURIUM, Strain/Indicator: TA1535, Metabolic Activation: RAT, LIVER, S-9, AROCLOR 1254, Method: PREINCUBATION): inactive; negative
mutagenic call (Test System: AMES SALMONELLA TYPHIMURIUM, Strain/Indicator: TA2638, Metabolic Activation: NONE, Method: STANDARD PLATE): active; positive
mutagenic call (Test System: E. COLI, Strain/Indicator: WP2 (PKM101), Metabolic Activation: NONE, Method: STANDARD PLATE): active; positive
mutagenic call (Test System: E. COLI, Strain/Indicator: WP2 UVRA (PKM101), Metabolic Activation: NONE, Method: STANDARD PLATE): active; positive

COC(=O)C12C[C@@]1(C=O)C(C=O)=C[C@@H]1CC(C)(C)C[C@@H]12 (some centres not stated)
mutagenic call [3]: active; positive
mutagenic call [6]: active; positive
mutagenic call (Test System: AMES SALMONELLA TYPHIMURIUM, Strain/Indicator: TA2637, Metabolic Activation: NONE, Method: STANDARD PLATE): active; positive

O=S(=O)(O)c1ccc(N=Nc2c(O)ccc3cc(S(=O)(=O)O)ccc23)cc1
mutagenic call (End Point: IN VITRO CHROMOSOMAL ABERRATIONS, Test System: CHO CELLS, Metabolic Activation: NONE): inactive; negative
mutagenic call (End Point: IN VITRO CHROMOSOMAL ABERRATIONS, Test System: CHO CELLS, Metabolic Activation: RAT, LIVER, S-9, AROCLOR 1254): inactive; negative
mutagenic call (Test System: AMES SALMONELLA TYPHIMURIUM, Strain/Indicator: TA97, Metabolic Activation: HAMSTER, LIVER, S-9, AROCLOR 1254 (10%), Method: PREINCUBATION): inactive; negative
mutagenic call (Test System: AMES SALMONELLA TYPHIMURIUM, Strain/Indicator: TA97, Metabolic Activation: HAMSTER, LIVER, S-9, AROCLOR 1254 (30%), Method: PREINCUBATION): inactive; negative
mutagenic call [1]: inactive; negative
mutagenic call (Test System: AMES SALMONELLA TYPHIMURIUM, Strain/Indicator: TA97, Metabolic Activation: RAT, LIVER, S-9, AROCLOR 1254 (10%), Method: PREINCUBATION): inactive; negative
mutagenic call (Test System: AMES SALMONELLA TYPHIMURIUM, Strain/Indicator: TA97, Metabolic Activation: RAT, LIVER, S-9, AROCLOR 1254 (30%), Method: PREINCUBATION): inactive; negative
mutagenic call (Test System: AMES SALMONELLA TYPHIMURIUM, Strain/Indicator: TA98, Metabolic Activation: HAMSTER, LIVER, S-9, AROCLOR 1254 (10%), Method: PREINCUBATION): inactive; negative
mutagenic call (Test System: AMES SALMONELLA TYPHIMURIUM, Strain/Indicator: TA98, Metabolic Activation: HAMSTER, LIVER, S-9, AROCLOR 1254 (30%), Method: PREINCUBATION): inactive; negative
mutagenic call [2]: inactive; negative
mutagenic call [3]: inactive; negative
mutagenic call (Test System: AMES SALMONELLA TYPHIMURIUM, Strain/Indicator: TA98, Metabolic Activation: RAT LIVER S-9, AROCLOR 1254, Method: STANDARD PLATE): inactive; negative
mutagenic call (Test System: AMES SALMONELLA TYPHIMURIUM, Strain/Indicator: TA98, Metabolic Activation: RAT, LIVER, S-9, AROCLOR 1254 (10%), Method: PREINCUBATION): inactive; negative
mutagenic call (Test System: AMES SALMONELLA TYPHIMURIUM, Strain/Indicator: TA98, Metabolic Activation: RAT, LIVER, S-9, AROCLOR 1254 (30%), Method: PREINCUBATION): inactive; negative
mutagenic call [4]: inactive; negative
mutagenic call (Test System: AMES SALMONELLA TYPHIMURIUM, Strain/Indicator: TA100, Metabolic Activation: HAMSTER, LIVER, S-9, AROCLOR 1254 (10%), Method: PREINCUBATION): inactive; negative
mutagenic call (Test System: AMES SALMONELLA TYPHIMURIUM, Strain/Indicator: TA100, Metabolic Activation: HAMSTER, LIVER, S-9, AROCLOR 1254 (30%), Method: PREINCUBATION): inactive; negative
mutagenic call [5]: inactive; negative
mutagenic call [6]: inactive; negative
mutagenic call (Test System: AMES SALMONELLA TYPHIMURIUM, Strain/Indicator: TA100, Metabolic Activation: RAT LIVER S-9, AROCLOR 1254, Method: STANDARD PLATE): inactive; negative
mutagenic call (Test System: AMES SALMONELLA TYPHIMURIUM, Strain/Indicator: TA100, Metabolic Activation: RAT, LIVER, S-9, AROCLOR 1254 (10%), Method: PREINCUBATION): inactive; negative
mutagenic call (Test System: AMES SALMONELLA TYPHIMURIUM, Strain/Indicator: TA100, Metabolic Activation: RAT, LIVER, S-9, AROCLOR 1254 (30%), Method: PREINCUBATION): inactive; negative
mutagenic call [7]: inactive; negative
mutagenic call (Test System: AMES SALMONELLA TYPHIMURIUM, Strain/Indicator: TA1535, Metabolic Activation: HAMSTER, LIVER, S-9, AROCLOR 1254 (10%), Method: PREINCUBATION): inactive; negative
mutagenic call (Test System: AMES SALMONELLA TYPHIMURIUM, Strain/Indicator: TA1535, Metabolic Activation: HAMSTER, LIVER, S-9, AROCLOR 1254 (30%), Method: PREINCUBATION): inactive; negative
mutagenic call [8]: inactive; negative
mutagenic call (Test System: AMES SALMONELLA TYPHIMURIUM, Strain/Indicator: TA1535, Metabolic Activation: RAT, LIVER, S-9, AROCLOR 1254 (10%), Method: PREINCUBATION): inactive; negative
mutagenic call (Test System: AMES SALMONELLA TYPHIMURIUM, Strain/Indicator: TA1535, Metabolic Activation: RAT, LIVER, S-9, AROCLOR 1254 (30%), Method: PREINCUBATION): inactive; negative
